# In patent US10988523B2, “Modified lipidated Relaxin B chain peptides and their therapeutic use” (Sanofi, priority 2018, dated 2021):
# *1 amine or outer side, *2 acyl side, *3 side chain or, on linkers, in order; H or OH if unused. Where a SMILES comes first, the peptide text is derived from it. Side-chain parts run from the residue outwards. [ ]: non-standard residue; d: D form. The star is where a group is joined. X11 = CCCCCCCCCCCCCCCC(=O)N[C@@H](CCC(=O)NCCCC[C@H](NC(=O)CC[C@H](NC(=O)CC[C@H](NC(=O)CC[C@H](NC(=O)CCC(=O)NCCCOCCOCCOCCCNC(=O)CCC(=O)NCCCOCCOCCOCCCNC(=O)CCC(=O)NCCCOCCOCCOCCCN*)C(=O)O)C(=O)O)C(=O)O)C(N)=O)C(=O)O; γGlu = O=C(O)[C@H](CCC(=O)[*:2])N[*:1]; 1Nal = N[C@@H](Cc1cccc2ccccc12)C(=O)O; Stearoyl = CCCCCCCCCCCCCCCCCC(=O)*; αMeK = C[C@](N)(CCCCN)C(=O)O; Lauroyl = CCCCCCCCCCCC(=O)*; Nle = CCCC[C@H](N)C(=O)O; AEEA = NCCOCCOCC(=O)O; Aib = CC(C)(N)C(=O)O
# Target: T1, RXFP1 (Homo sapiens, UniProt Q9HBX9)
# T1 construct: OVCAR5 cells expressing endogenous RXFP1; endogenous in cells; host or cells: OVCAR5 cells
# T1 sequence (Q9HBX9 1-757): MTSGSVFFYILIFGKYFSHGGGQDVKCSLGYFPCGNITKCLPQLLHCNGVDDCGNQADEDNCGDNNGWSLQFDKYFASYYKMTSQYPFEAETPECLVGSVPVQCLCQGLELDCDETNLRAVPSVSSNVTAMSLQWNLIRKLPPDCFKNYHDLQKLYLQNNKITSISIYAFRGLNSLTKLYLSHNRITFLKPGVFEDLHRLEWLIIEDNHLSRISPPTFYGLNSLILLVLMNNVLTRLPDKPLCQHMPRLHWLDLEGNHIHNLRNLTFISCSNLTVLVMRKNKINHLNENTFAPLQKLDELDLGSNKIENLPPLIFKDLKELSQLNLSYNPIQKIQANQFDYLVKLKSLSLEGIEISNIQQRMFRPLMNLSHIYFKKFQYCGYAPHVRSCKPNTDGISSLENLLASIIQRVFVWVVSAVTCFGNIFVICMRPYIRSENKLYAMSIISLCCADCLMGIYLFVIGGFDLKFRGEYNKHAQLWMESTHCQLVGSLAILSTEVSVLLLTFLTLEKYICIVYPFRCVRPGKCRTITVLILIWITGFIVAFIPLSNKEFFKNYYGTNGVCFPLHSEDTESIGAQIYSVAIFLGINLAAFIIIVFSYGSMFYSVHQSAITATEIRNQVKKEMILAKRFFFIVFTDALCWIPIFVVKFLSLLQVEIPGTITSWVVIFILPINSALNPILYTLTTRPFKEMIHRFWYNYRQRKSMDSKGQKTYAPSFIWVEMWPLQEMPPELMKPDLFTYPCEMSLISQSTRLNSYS
# Assay: OVCAR5 cAMP assay (HTRF), RXFP1 agonist activity
# Format: cell-based
# Conditions: for EC50: OVCAR5 cells, cAMP HTRF, read-out: EC50 (nM), OVCAR 5 cells (cAMP); for Emax: OVCAR-5, maximal cAMP relative to H2-relaxin maximum (100%), read-out: EMax, OVCAR 5 cells (cAMP)
# Source text: OVCAR5 cells expressing endogenous RXFP1 were used to test RXP1 agonist properties of peptides of the invention, and in particular of the peptides of sequence SEQ ID NO: 1-193.
# Since RXFP1 is a Gs coupled GPCR, cAMP was used as readout of RXFP1 activation.
# Isobutyl Methyl Xanthine (IBMX) was used to inhibit phosphodiesterase activity facilitating cAMP measurements. HTRF (Homogenous Time Resolved Fluorescence) technology was used to detect cAMP due to its great sensitivity.
# In summary, OVCAR5 were grown in regular medium (RPMI) containing 10% fetal calf serum (FCS) and 1% antibiotics (penicillin/streptomycin).
# Before the experiments, cells were detached with accutase and incubated for 40 minutes at 37° C. with 1 mM (3-isobutyl-1-methylxanthine) IBMX.
# Cells were then distributed in 384 black well plates containing increasing concentrations of the different peptides in a fix volume of medium (without FCS).
# After an incubation of 30 min at 37° C. in an humid incubator in 5% CO2, the reaction was stopped by adding a fixed volume of a solution containing a lysis buffer and cAMP-D2 (cAMP labeled with the dye d2) and the anti cAMP antibody linked to Europium and used for cAMP detection.
# Readout of the experiment were performed on a fluorimeter allowing HTRF measurement. Activation curves were generated by plotting the intracellular value of cAMP versus log 10 of the compound concentration.
# The 50% activation concentration (EC50) was calculated by nonlinear regression using the sigmoidal dose-response (variable slope) equation with Prism 5 software.
# Emax % is determined as the maximal intracellular value of cAMP for test compound (upper limit of cAMP vs concentration curve) divided by the maximal intracellular value of cAMP for H2-relaxin determined in the same test occasion multiplied by 100. Emax %=100×[cAMPtest cpd]/[cAMPH2-RlX]
EC50,Emax,Structure (SMILES)
0.09 nM,76%,CCCCCCCCCCCCCCCCCC(=O)N[C@@H](CCC(=O)N[C@@H](CCC(=O)N[C@@H](CCC(=O)NCCOCCOCC(=O)NCCOCCOCC(=O)NCCOCCOCC(=O)NCCCC[C@H](NC(=O)[C@H](CCCCNC(C)=O)NC(=O)[C@H](CCCCN)NC(=O)[C@H](CCCNC(=N)N)NC(=O)C(C)(C)NC(=O)[C@H](CO)NC(=O)[C@H](Cc1cccc2ccccc12)NC(=O)[C@@H](NC(=O)[C@H](CO)NC(=O)[C@H](CCCC)NC(=O)CNC(=O)[C@H](CCC(=O)O)NC(=O)C(C)(C)NC(=O)C(C)(C)NC(=O)[C@@H](NC(=O)[C@H](CCCCNC(C)=O)NC(=O)[C@H](C)NC(=O)[C@H](CCCNC(=N)N)NC(=O)[C@@H](NC(=O)[C@H](CCCCN)NC(=O)[C@H](CCC(=O)O)NC(=O)[C@H](CCCNC(=N)N)NC(=O)CNC(=O)[C@H](CCC(=O)O)NC(=O)[C@H](CC(C)C)NC(C)=O)C(C)C)[C@@H](C)CC)[C@@H](C)O)C(N)=O)C(=O)O)C(=O)O)C(=O)O [compound 84] (Ac-LEGREKVRAK(Ac)I[Aib][Aib]EG[Nle]ST[1Nal]S[Aib]RKK(Ac)K([AEEA-AEEA-AEEA-γGlu-γGlu-γGlu-Stearoyl])-NH2)
–,92%,CCCCCCCCCCCC(=O)N[C@@H](CCC(=O)N[C@@H](CCC(=O)N[C@@H](CCC(=O)NCCOCCOCC(=O)NCCOCCOCC(=O)NCCOCCOCC(=O)NCCCC[C@H](NC(=O)[C@H](CCCCNC(C)=O)NC(=O)[C@H](CCCCN)NC(=O)[C@H](CCCNC(=N)N)NC(=O)C(C)(C)NC(=O)[C@H](CO)NC(=O)[C@H](Cc1c[nH]c2ccccc12)NC(=O)[C@@H](NC(=O)[C@H](CO)NC(=O)[C@H](CCCC)NC(=O)CNC(=O)[C@H](CCC(=O)O)NC(=O)C(C)(C)NC(=O)C(C)(C)NC(=O)[C@@H](NC(=O)[C@H](CCCCNC(C)=O)NC(=O)[C@H](C)NC(=O)[C@H](CCCNC(=N)N)NC(=O)[C@@H](NC(=O)[C@H](CCCCN)NC(=O)[C@H](CCC(=O)O)NC(=O)[C@H](CCCNC(=N)N)NC(=O)CNC(=O)[C@H](CCC(=O)O)NC(=O)[C@H](CC(C)C)NC(C)=O)C(C)C)[C@@H](C)CC)[C@@H](C)O)C(N)=O)C(=O)O)C(=O)O)C(=O)O [compound 120] (Ac-LEGREKVRAK(Ac)I[Aib][Aib]EG[Nle]STWS[Aib]RKK(Ac)K([AEEA-AEEA-AEEA-γGlu-γGlu-γGlu-Lauroyl])-NH2)
0.2 nM,100%,CCCCCCCCCCCCCCCC(=O)N[C@@H](CCC(=O)NCCCC[C@H](NC(=O)CC[C@H](NC(=O)CC[C@H](NC(=O)CC[C@H](NC(=O)CCC(=O)NCCCOCCOCCOCCCNC(=O)CCC(=O)NCCCOCCOCCOCCCNC(=O)CCC(=O)NCCCOCCOCCOCCCNC(=O)[C@H](CCCCNC(C)=O)NC(=O)[C@H](C)NC(=O)[C@H](CCCNC(=N)N)NC(=O)[C@](C)(CCCCN)NC(=O)[C@H](CO)NC(=O)[C@H](Cc1ccccc1)NC(=O)[C@@H](NC(=O)[C@H](CO)NC(=O)[C@H](CCCC)NC(=O)CNC(=O)[C@H](CCC(=O)O)NC(=O)C(C)(C)NC(=O)C(C)(C)NC(=O)[C@@H](NC(=O)[C@H](CCCCNC(C)=O)NC(=O)[C@H](C)NC(=O)[C@H](CCCNC(=N)N)NC(=O)[C@@H](NC(=O)[C@H](CCCCN)NC(=O)[C@H](CCC(=O)O)NC(=O)[C@H](CCCNC(=N)N)NC(=O)CNC(=O)[C@H](CCC(=O)O)NC(=O)[C@H](CC(C)C)NC(C)=O)C(C)C)[C@@H](C)CC)[C@@H](C)O)C(=O)O)C(=O)O)C(=O)O)C(N)=O)C(=O)O [compound 193] (Ac-LEGREKVRAK(Ac)I[Aib][Aib]EG[Nle]STFS[αMeK]RAK(Ac)-X11)
